Source: US20100166727A1, “S-Adenosylmethionine And Methylthioadensosine In Chemoprevention And Treatment Of Colon Polyps And Cancer” (UNIVERSITY OF SOUTHERN CALIFORNIA, priority 2007, published 2010)

How the values were obtained:
MAT2A = MAT2A expression in NCM460 cells; assay type: cell-based, human; details: 5 mM SAMe or 1 mM MTA, 6 hrs
Protocol: Total RNA was isolated by the EZgeno total RNA isolation kit (Genemega, San Giego, Calif.), and subjected to reverse transcription (RT) by using M-MLV Reverse transcriptase (Invitrogen). 2 μl of RT product was subjected to quantitative real-time PCR analysis. The primers and TaqMan probes for MAT2A, MAT2β and Universal PCR Master Mix were purchased from ABI (Foster City, Calif.). Hypoxanthine phosphoribosyl-transferase 1 (HPRT1) and ubiquitin C (UBC) were used as housekeeping genes (48). The thermal profile consisted of 1 cycle at 95° C. for 15 minutes followed by 40 cycles at 95° C. for 15 seconds and at 60° C. for 1 minute. The expression of MAT2A and MAT2β was checked by normalizing the Ct of MAT2A and MAT2β to that of the control housekeeping gene (HPRT1 or UBC) (49). The delta Ct obtained was used to find the relative expression of MAT genes according to the formula: Relative expression=2·^ΔCt, where ΔCt=ΔCt of MAT genes in colon cancer or treated cells—ΔCt of MAT genes in normal colon or control cells.
NCM460 cell line was originally established in 1996 as the first non-malignant colonic epithelial cell line derived from the transverse colon (43). When first developed, cells formed both monolayer and in suspension, express villin and cytokeratin staining (43). […] The NCM460 cells in monolayer have features of transverse colon crypt cells (69). […]

human MAT2A promoter = experiment: Luciferase activity driven by the human MAT2A promoter in HT-29 cells; assay type: cell-based; details: SAMe 5 mM or MTA 1 mM, 6 hrs
Protocol: The human MAT2A promoter construct[…] and GSS promoter construct −1686/−46-LUC were previously described (33, 34, 50), and subcloned in the sense orientation upstream of the luciferase coding sequence of the pGL-3 enhancer vector (Promega). Both promoter constructs contain maximal promoter activity.
To study the effect of mitogens on human MAT2A promoter activity in HT-29 cells, HT-29 cells (5×10^5 cells in 2 ml serum-free medium) were transiently transfected with 2 μg MAT2A promoter firefly luciferase gene construct or promoterless pGL3-enhancer vector (as negative control) using the Superfect Transfection Reagent (Qiagen, Valencia, Calif.) (34). To control for transfection efficiency, cells were co-transfected with the Renilla phRL-TK vector (Promega, Madison, Wis.). […] The luciferase activity driven by the MAT2A promoter construct was normalized to Renilla luciferase activity. Each experiment was done with triplicate samples.

HT-29 cells [1] = experiment: Cell growth by MTT assay in HT-29 cells; assay type: cell-based, human
Protocol: Cell growth was measured by the cell growth determination kit MTT from Sigma (St. Louis, Mo.). The MTT assay measures the cell proliferation rate and reduction in cell viability. HT-29 or RKO cells (1×10^4/well) were plated in 96-well plates and treated with growth factors (all 100 ng/ml), SAMe (0.5 to 5 mM), MTA (0.5 to 1 mM), alone or in combination for 16 hrs in serum-free medium. To determine the effect of MAT2A RNAi on mitogen-induced changes in MTT, cells were first treated with RNAi for 48 hrs followed by mitogen treatment for another 24 hrs.

HT-29 cells [2] = experiment: Polyamine levels in HT-29 cells; assay type: cell-based, human; details: 6 hrs
Protocol: HT-29 and RKO cells were obtained from the Cell Culture Core of the USC Liver Disease Research Center and grown according to instructions provided by the American Type Culture Collection (ATCC, Rockville, Md.). Prior to treatment with growth factors, SAMe or MTA, medium was changed to 0.1% FBS overnight.
Cellular SAMe and MTA levels were measured (51) and polyamine levels were determined (52).

[3] = tested on: spermine synthase (SPM syn); experiment: SPM syn expression by real-time PCR in HT-29 cells; assay type: cell-based, human; details: 6 hrs
c-FLIP = c-FLIP mRNA level by real-time PCR in HT-29 cells; assay type: cell-based, human; details: SAMe 2 mM, MTA 1 mM, 6 hrs, mean±SE
Bcl-xL = Bcl-xL mRNA level in HT-29 cells; assay type: cell-based, human; details: SAMe 2 mM, 6 hrs
Protocol: (§1) SAMe and MTA induce apoptosis in liver cancer cells by the mitochondrial pathway (14). […] In liver cancer cells, SAMe and MTA induced selectively expression of Bcl-xs, a pro-apoptotic protein (67). We examined whether the same occurs in HT-29 cells. After 6 hrs of MTA (1 mM) treatment, Bcl-xL mRNA level fell by 53% (47±4% of control, results are mean±SE from 4 experiments, p<0.0005). […] This makes these agents particularly attractive in targeting colon cancer cells.

Bcl-xS = Bcl-xS mRNA level in HT-29 cells; assay type: cell-based, human; details: 6 hrs
Protocol: as §1

RKO cells = experiment: TRAIL-induced apoptosis in RKO cells (Annexin V with FACS); assay type: cell-based, human; details: 24 hours
Protocol: FIG. 28. MTA sensitizes RKO cells to TRAIL-induced apoptosis. RKO cells were treated with 1 mM MTA, […] 5-FU, or 10 ng/ml TRAIL alone or in combination for 24 hours. Apoptosis was determined by Annexin V with FACS.

MAT2β = experiment: Colonic MAT2β mRNA in mice fed SAMe or MTA; assay type: in vivo; details: 150 mg/kg/d SAMe, 6 days
Protocol: FIG. 30. Effects of oral SAMe and MTA on colonic mRNA levels of MAT2A, MAT2 β, and […]. Mice were fed SAMe (150 to 450 mg/kg/d) or MTA (75 or 150 mg/kg/d) in drinking water for 6 days. Colonic mucosa was scrapped off and gene expression measured by real-time PCR.

MAT I = MAT I (Rattus norvegicus, UniProt P13444); details: cited from earlier work
MAT III = MAT III (Rattus norvegicus, UniProt P13444); details: cited from earlier work
Sequence of MAT III (P13444 whole entry): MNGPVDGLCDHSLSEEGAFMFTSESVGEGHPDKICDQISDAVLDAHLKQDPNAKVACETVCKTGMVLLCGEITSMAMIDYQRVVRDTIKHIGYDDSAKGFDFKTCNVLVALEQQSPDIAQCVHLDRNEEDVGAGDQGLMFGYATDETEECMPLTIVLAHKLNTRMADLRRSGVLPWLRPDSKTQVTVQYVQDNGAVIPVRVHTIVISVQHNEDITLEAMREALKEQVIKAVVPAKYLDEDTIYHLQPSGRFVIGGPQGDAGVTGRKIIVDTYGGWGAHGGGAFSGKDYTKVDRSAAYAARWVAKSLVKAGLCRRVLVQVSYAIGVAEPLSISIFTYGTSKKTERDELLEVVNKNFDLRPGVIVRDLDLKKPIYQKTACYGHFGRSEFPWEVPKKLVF

Sequence of MAT I (P13444 whole entry): as above

Compound: C[S+](CC[C@H](N)C(=O)O)C[C@H]1O[C@@H](n2cnc3c(N)ncnc32)[C@H](O)[C@@H]1O (stereo partly shown) [SAMe, S-adenosylmethionine]
- reduction of MAT2A expression (MAT2A): 40%
- human MAT2A promoter activity (human MAT2A promoter): lower the promoter activity
- growth (HT-29 cells [1]; SAMe 5 mM, 24 hr): 71 % of control
- growth, agent alone (HT-29 cells [1]; SAMe 0.5 to 5 mM, MTA 0.5 to 1 mM, 16 hrs): no effect on growth
- mitogenic action of leptin, EGF and IGF-1 (HT-29 cells [1]; SAMe 0.5 to 5 mM, MTA 0.5 to 1 mM, 16 hrs, with growth factors): blocked the mitogenic action
- Putrescine (HT-29 cells [2]; SAMe 2 mM): 0.06 ± 0.01 nmol/mg protein
- Spermidine (HT-29 cells [2]; SAMe 2 mM): 2.37 ± 0.02 nmol/mg protein
- Spermine (HT-29 cells [2]; SAMe 2 mM): 12.39 ± 2.86 nmol/mg protein
- Putrescine (HT-29 cells [2]; SAMe 5 mM): 0.01 ± 0.01 nmol/mg protein
- Spermidine (HT-29 cells [2]; SAMe 5 mM): 1.90 ± 0.18 nmol/mg protein
- Spermine (HT-29 cells [2]; SAMe 5 mM): 13.21 ± 2.58 nmol/mg protein
- SPM syn expression ([3]; SAMe 2 mM): 1.1 ± 0.02 fold of control
- SPM syn expression ([3]; SAMe 5 mM): 1.0 ± 0.01 fold of control
- c-FLIP mRNA level (c-FLIP): 70±2 % of control
- Bcl-xL mRNA level (Bcl-xL): did not have an effect
- Bcl-xS mRNA level (Bcl-xS): no effect on Bcl-xS mRNA level
- TRAIL-induced apoptosis (RKO cells): sensitized RKO cells to TRAIL-induced apoptosis
- inhibition of MAT2β expression (MAT2β): 50%
- Inhibition by SAMe (MAT I; MAT I): No
- IC50 (MAT I; read-out: IC50, inhibition of MAT I): 400 µM
- Inhibition by SAMe (MAT III; MAT III): No
- stimulation of MAT III (MAT III; at 500 μM SAMe): up to 8 fold
